ChEMBL document CHEMBL1138100 (Bioorg Med Chem Lett, 2006)

Tests used:
[1] = biological target: Inosine-5'-monophosphate dehydrogenase 2 (Homo sapiens, UniProt P12268); assay: Inhibition of human IMPDH2
[2] = biological target: Inosine-5'-monophosphate dehydrogenase 1 (Homo sapiens, UniProt P20839); assay: Inhibition of human IMPDH1
[3] = biological target: Inosine-5'-monophosphate dehydrogenase (IMPDH) (Homo sapiens) (UniProt P20839+P12268); assay: Selectivity for IMPDH1 over IMPDH2; type: protein assay
Inosine-5'-monophosphate dehydrogenase (IMPDH) (Homo sapiens), sequence (P20839 whole entry, looked up, other chains not shown): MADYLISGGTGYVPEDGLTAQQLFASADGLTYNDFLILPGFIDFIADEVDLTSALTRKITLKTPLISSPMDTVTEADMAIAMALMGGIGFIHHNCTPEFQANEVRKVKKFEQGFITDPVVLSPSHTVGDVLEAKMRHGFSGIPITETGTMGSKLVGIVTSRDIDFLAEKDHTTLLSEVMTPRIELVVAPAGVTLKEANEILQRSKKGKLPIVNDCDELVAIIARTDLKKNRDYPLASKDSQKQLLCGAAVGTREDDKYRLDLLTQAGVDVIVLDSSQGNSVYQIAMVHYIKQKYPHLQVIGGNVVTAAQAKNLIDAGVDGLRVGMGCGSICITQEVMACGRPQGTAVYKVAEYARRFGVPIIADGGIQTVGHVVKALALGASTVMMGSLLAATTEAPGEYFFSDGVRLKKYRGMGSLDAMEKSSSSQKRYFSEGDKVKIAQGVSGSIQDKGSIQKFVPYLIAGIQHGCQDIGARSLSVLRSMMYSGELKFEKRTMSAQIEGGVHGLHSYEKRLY

Inosine-5'-monophosphate dehydrogenase 1, sequence (P20839 whole entry): as the sequence (P20839 whole entry, looked up, other chains not shown) above

IC50 [1] | IC50 [2] | Selectivity ratio [3] | SMILES
> 1000 nM |  |  | COc1c(C)c2c(c(O)c1C/C=C(\C)CN(C)CCP(=O)(O)O)C(=O)OC2
 | 32 nM |  | COc1c(C)c2c(c(O)c1C/C=C(\C)CCC(=O)O)C(=O)OC2 [MYCOPHENOLIC ACID]
> 1000 nM |  |  | COc1c(C)c2c(c(O)c1C/C=C(\C)CNCP(=O)(O)O)C(=O)OC2
498 nM |  |  | COc1c(C)c2c(c(O)c1C/C=C(\C)CN(CCP(=O)(O)O)S(C)(=O)=O)C(=O)OC2
86 nM |  |  | COc1c(C)c2c(c(O)c1C/C=C(\C)CCCP(=O)(O)O)C(=O)OC2
132 nM |  |  | CCc1c(C)c2c(c(O)c1C/C=C(\C)CN(C)CCP(=O)(O)O)C(=O)OC2
506 nM |  |  | COc1c(C)c2c(c(O)c1C/C=C(C)/C=C/P(=O)(O)O)C(=O)OC2
13 nM | 37 nM | 2.8 | CCc1c(C)c2c(c(O)c1C/C=C(\C)CNCCP(=O)(O)O)C(=O)OC2
20 nM | 71 nM | 3.6 | CCc1c(C)c2c(c(O)c1C/C=C(\C)CP(=O)(O)O)C(=O)OC2
23 nM | 38 nM | 1.7 | CCc1c(C)c2c(c(O)c1C/C=C(\C)COCP(=O)(O)O)C(=O)OC2
168 nM |  |  | COc1c(C)c2c(c(O)c1C/C=C(\C)CP(=O)(O)O)C(=O)OC2

Second part, the molecule before the results:

SMILES | IC50 [1] | IC50 [2] | Selectivity ratio [3]
COc1c(C)c2c(c(O)c1CC=C(C)C)C(=O)OC2 | 254 nM |  | 
CCOP(=O)(CCNC/C(C)=C/Cc1c(O)c2c(c(C)c1OC)COC2=O)OCC | > 1000 nM |  | 
COc1c(C)c2c(c(O)c1C/C=C(\C)COCP(=O)(O)O)C(=O)OC2 | 246 nM |  | 
COc1c(C)c2c(c(O)c1C/C=C(\C)CN(C=O)CCP(=O)(O)O)C(=O)OC2 | 749 nM |  | 
CCc1c(C)c2c(c(O)c1C/C=C(\C)CN(CCP(=O)(O)O)S(N)(=O)=O)C(=O)OC2 | 24 nM |  | 
CCc1c(C)c2c(c(O)c1C/C=C(\C)CN(CCP(=O)(O)O)S(C)(=O)=O)C(=O)OC2 | 68 nM |  | 
COc1c(C)c2c(c(O)c1C/C=C(\C)CN(CCP(=O)(O)O)C(C)=O)C(=O)OC2 | 785 nM |  | 
COC/C(C)=C/Cc1c(O)c2c(c(C)c1OC)COC2=O | 273 nM |  | 
COc1c(C)c2c(c(O)c1C/C=C(\C)CCP(=O)(O)O)C(=O)OC2 | 96 nM |  | 
COc1c(C)c2c(c(O)c1C/C=C(\C)CNCCP(=O)(O)O)C(=O)OC2 | 499 nM |  | 
COc1c(C)c2c(c(O)c1C/C=C(\C)CN(CCP(=O)(O)O)S(N)(=O)=O)C(=O)OC2 | 93 nM |  | 
COc1c(C)c2c(c(O)c1C/C=C(\C)CP(=O)(OC)OC)C(=O)OC2 | 289 nM |  | 
